This is an account of results in patent publication US6288091A, “Antiherpes virus compounds and methods for their preparation and use” (Boehringer Ingelheim Ltd., priority 1999, dated 2001).

Test [1] concerns HCMV (strain AD169). Kind of test: Inhibition of HCMV replication, ELISA assay (Hs-68 cells). The class given is cell-based, Human Cytomegalovirus (HCMV). The note with it: read-out: ELISA CMV EC50. The gist of the method: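 Hs-68 fibroblasts at 80–90% confluency infected with HCMV AD169 at MOI 0.01 PFU/cell for 2 h, washed, then cultured 8 days at 37 °C with test compound in DMEM/5% FBS. Late protein p28 detected by ELISA (mAb UL99, HRP/OPD, 450 nm); EC50 from % inhibition of replication.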

For test [2], the system named is HCMV (strain AD169). The experiment in a line: Inhibition of HCMV replication, plaque reduction assay (PRA, Hs-68 cells). It counts as cell-based, Human Cytomegalovirus (HCMV). As to conditions: read-out: PRA CMV EC50. The gist of the method:
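Hs-68 monolayers (80–90% confluent) were infected with ~50 PFU HCMV AD169 for 2 h at 37°, then given compound in DMEM/5% inactivated FBS, refreshed after 4 days and kept 4 more days. Plaques were counted after formaldehyde fixation and crystal violet staining. EC50 derives from percent plaque reduction versus untreated wells.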

[3] abbreviates: Human betaherpesvirus 5, AD169, Hs68, Group 1 Table 1 entries.
Where [4] appears, read: Human betaherpesvirus 5, AD169, Hs68, Group 1 Table 2 entries.
Setting [5] is: Human betaherpesvirus 5, AD169, Hs68, Group 1 Table 3 entries.
The mark [6] stands for this setting: Human betaherpesvirus 5, AD169, Hs68, Group 1 Table 5 entries.

Each structure is given as a SMILES string.

Take `Nc1nc(-c2ccc(NC(=O)CN(CC3CCCCC3)C(=O)C3CCCC3)cc2)cs1` [Example 63]: the 50% effective concentration (EC50) in the test with HCMV (strain AD169) [1] (setting [3]) is 2.2 µM; in the test with HCMV (strain AD169) [2] (setting [3]) it was over 21 µM.
Regarding `CC(=O)N(CC(=O)Nc1ccc(-c2csc(N)n2)cc1)Cc1ccccc1` [Example 44], the values for the EC50 in the test on HCMV (strain AD169) [1] (setting [3]) and in the test on HCMV (strain AD169) [2] (setting [3]) were 16 µM and 37 µM, respectively.
Consider `CC(C)(C)OC(=O)N(CCC(=O)Nc1ccc(-c2csc(N)n2)cc1)Cc1ccccc1` [Example 15], for which the half-maximal effective concentration (EC50) in the test with HCMV (strain AD169) [1] (setting [4]) was 11.3 µM; in the test on HCMV (strain AD169) [2] (setting [4]), 9 µM.
For the molecule `C[C@@H](NCC(=O)Nc1ccc(-c2csc(N)n2)cc1)c1ccccc1` [Example 11], the EC50 in the test with HCMV (strain AD169) [1] (setting [3]) and with HCMV (strain AD169) [2] (setting [3]) was 19 µM each time.
In the case of `Nc1nc(-c2ccc(NC(=O)CN(Cc3ccncc3)C(=O)C3CCCCC3)cc2)cs1` [Example 49, N-{2-{{4-(2-amino-4-thiazolyl)phenyl}amino}-2-oxoethyl}-N-(4-pyridinylmethyl)cyclohexanecarboxamide], the EC50 with HCMV (strain AD169) [1] (setting [3]) came out at 25 µM; in the test on HCMV (strain AD169) [2] (setting [3]), 23 µM.
Consider `CC(=O)Nc1nc(-c2ccc(NC(=O)CN(Cc3ccccc3)C(C)=O)cc2)cs1` [Example 18], for which the results for the half-maximal effective concentration (EC50) with HCMV (strain AD169) [1] (setting [5]) and in the test on HCMV (strain AD169) [2] (setting [5]) were 2.8 µM and over 81 µM, respectively.
Consider `Nc1nc(-c2ccc(NC(=O)CN(Cc3ccccc3)C(=O)c3ccc(F)cc3)cc2)cs1` [Example 24], for which the EC50 came to 14 µM with HCMV (strain AD169) [1] (setting [3]) and 15 µM with HCMV (strain AD169) [2] (setting [3]).
On the same counts, the results for `CC(C)(C)OC(=O)N(CC(=O)Nc1ccc(-c2csc(N)n2)cc1)Cc1ccncc1` [Example 90] are 3.5 µM and 88 µM.
As to `Nc1nc(-c2ccc(NC(=O)CCN(C(=O)c3cccnc3)C3Cc4ccccc4C3)cc2)cs1` [Example 12], the figures for the concentration giving a half-maximal response (EC50) with HCMV (strain AD169) [1] (setting [4]) and in the test on HCMV (strain AD169) [2] (setting [4]) were 6.5 µM and 8 µM, respectively.
For `Nc1nc(-c2ccc(NC(=O)CCNCc3cccc(F)c3)cc2)cs1` [Example 4], in that order: 6.6 µM and over 3.7 µM.
Turning to `CC(C)(C)CC(=O)N(CC(=O)Nc1ccc(-c2csc(N)n2)cc1)Cc1ccccc1` [Example 42], the concentration for a half-maximal effect (EC50) stood at 6 µM with HCMV (strain AD169) [1] (setting [3]) and 20 µM in the test with HCMV (strain AD169) [2] (setting [3]).
For `Nc1nc(-c2ccc(NC(=O)CN(CC3CCCCC3)C(=O)C3CCNCC3)cc2)cs1` [Example 62], in that order: 2.2 µM and 38 µM.
On the same counts, the results for `Nc1nc(-c2ccc(NC(=O)CN(Cc3ccccc3)C(=O)c3ccncc3)cc2)cs1` [Example 29] are 12 µM and 27 µM.
For `CC(C)(C)C(=O)N(CC(=O)Nc1ccc(-c2csc(N)n2)cc1)Cc1ccccc1` [Example 41], in that order: 14 µM and 34 µM.
Turning to `Nc1nc(-c2ccc(NC(=O)CN(Cc3ccccc3)Cc3ccccc3)cc2)cs1` [Example 16], the results for the EC50 in the test on HCMV (strain AD169) [1] (setting [3]) and in the test with HCMV (strain AD169) [2] (setting [3]) were 3.8 µM and 13 µM, respectively.
Take `Nc1nc(-c2ccc(NC(=O)CCN(Cc3ccccc3)C(=O)C3CCCCC3)cc2)cs1` [Example 8]: the values for the EC50 with HCMV (strain AD169) [1] (setting [4]) and in the test with HCMV (strain AD169) [2] (setting [4]) were 8.6 µM and 13 µM, respectively.
Take `CN(CC(=O)Nc1ccc(-c2csc(N)n2)cc1)C(=O)c1ccncc1` [Example 22]: the EC50 in the test on HCMV (strain AD169) [1] (setting [3]) and in the test on HCMV (strain AD169) [2] (setting [3]) was 110 µM each time.
Regarding `Nc1nc(-c2ccc(NC(=O)CN(Cc3ccccc3)C(=O)c3cnccn3)cc2)cs1` [Example 33], the EC50 is 28.2 µM in the test on HCMV (strain AD169) [1] (setting [3]) and 20 µM with HCMV (strain AD169) [2] (setting [3]).
Turning to `Nc1nc(-c2ccc(NC(=O)CN(Cc3ccccc3)C(=O)c3cccs3)cc2)cs1` [Example 32], the values for the concentration for a half-maximal effect (EC50) in the test with HCMV (strain AD169) [1] (setting [3]) and with HCMV (strain AD169) [2] (setting [3]) were 5.4 µM and 8.5 µM, respectively.
For the molecule `Nc1nc(-c2ccc(NC(=O)CN(CCc3ccccn3)C(=O)C3CCCCC3)cc2)cs1` [Example 50], the concentration for a half-maximal effect (EC50) worked out at 1.6 µM in the test on HCMV (strain AD169) [1] (setting [3]) and 13 µM with HCMV (strain AD169) [2] (setting [3]).
For `Nc1nc(-c2ccc(NC(=O)CN(Cc3ccccn3)C(=O)C3CCCCC3)cc2)cs1` [Example 47], in that order: 19 µM and over 103 µM.
As to `CCCC(CCC)NCCC(=O)Nc1ccc(-c2csc(N)n2)cc1` [Example 23], the half-maximal effective concentration (EC50) with HCMV (strain AD169) [1] (setting [4]) was 4 µM; with HCMV (strain AD169) [2] (setting [4]) it was over 9 µM.
On the same counts, the results for `C[C@@H](c1ccccc1)N(CCC(=O)Nc1ccc(-c2csc(N)n2)cc1)Cc1ccccc1` [Example 19] are 3.1 µM and 4 µM.
Take `C[C@H](NCC(=O)Nc1ccc(-c2csc(N)n2)cc1)c1ccccc1` [Example 10]: the EC50 is 2.2 µM in the test on HCMV (strain AD169) [1] (setting [3]) and over 30 µM with HCMV (strain AD169) [2] (setting [3]).
Regarding `Nc1nc(-c2ccc(NC(=O)CCNC3Cc4ccccc4C3)cc2)cs1` [Example 10], the results for the concentration giving a half-maximal response (EC50) with HCMV (strain AD169) [1] (setting [4]) and in the test on HCMV (strain AD169) [2] (setting [4]) were 7.5 µM and 14 µM, respectively.
As to `CC(C)(C)OC(=O)N[C@H](Cc1ccccc1)C(=O)Nc1ccc(-c2csc(N)n2)cc1` [Example 4], the EC50 in the test on HCMV (strain AD169) [1] (setting [6]) was 0.25 µM; in the test with HCMV (strain AD169) [2] (setting [6]), 22 µM.
As for `Nc1nc(-c2ccc(NC(=O)CN(Cc3ccccc3)C(=O)Cc3ccccn3)cc2)cs1` [Example 31], the concentration giving a half-maximal response (EC50) was determined as 1.3 µM in the test on HCMV (strain AD169) [1] (setting [3]) and 8.1 µM in the test on HCMV (strain AD169) [2] (setting [3]).
Consider `C[C@H](NCCC(=O)Nc1ccc(-c2csc(N)n2)cc1)c1ccccc1` [Example 20], for which the figures for the 50% effective concentration (EC50) in the test on HCMV (strain AD169) [1] (setting [4]) and with HCMV (strain AD169) [2] (setting [4]) were 0.8 µM and 13 µM, respectively.
Turning to `CC(C)(C)OC(=O)NCC(=O)N(CC(=O)Nc1ccc(-c2csc(N)n2)cc1)Cc1ccccc1` [Example 72], the EC50 in the test with HCMV (strain AD169) [1] (setting [3]) was 7.5 µM; in the test on HCMV (strain AD169) [2] (setting [3]), 24 µM.
